For experiment [1], the target named is T1, E3 ubiquitin-protein ligase CBL-B (Homo sapiens, UniProt Q13191). The experiment in a line: Binding affinity towards N-terminal biotinylated Avi-tagged human CBL-B (36 to 427 residues) measured by surface plasmon resonance assay.
The nature of experiment [2]: Induction of anti-CD3/CD28 antibodies-stimulated human T cell activation at 0.3 uM assessed fold increase in IL-2 secretion measured by ELISA assay. The experiment is classed as functional, T cell line. For orientation: In an ELISA, binding on a coated surface is turned into a signal by an enzyme label.
Experiment [3] is described as follows: Induction of anti-CD3/CD28 antibodies-stimulated human T cell activation at 1 uM assessed fold increase in IL-2 secretion measured by ELISA assay. The experiment is classed as functional, T cell line.
A short description of experiment [4]: Induction of anti-CD3/CD28 antibodies-stimulated human T cell activation at 1 uM assessed fold increase in CD25 expression measured by ELISA assay. The experiment is classed as functional, T cell line.
A short description of experiment [5]: Induction of anti-CD3 antibodies-stimulated human T cell activation at 1 uM assessed fold increase in CD25 expression measured by ELISA assay. Further: reference of the scale not given here. The experiment is classed as functional, T cell line.
A short description of experiment [6]: Induction of anti-CD3 antibodies-stimulated human T cell activation at 1 uM assessed fold increase in IL-2 secretion measured by ELISA assay. Further: reference of the scale not given here. The experiment is classed as functional, T cell line.
Experiment [7] can be described thus: Induction of anti-CD3/CD28 antibodies-stimulated human T cell activation at 0.3 uM assessed fold increase in CD25 expression measured by ELISA assay. The experiment is classed as functional, T cell line.
In experiment [8] the target is T1, E3 ubiquitin-protein ligase CBL-B. Nature of the experiment: Inhibition of N-terminal Avi-tagged human CBL-B (36 to 427 residues) incubated with 60 nM Src kinase for 1.5 hrs followed by incubation with fluorescently labeled UbcH5B-Ub for 1 hr and measured by TR-FRET assay. The experiment is classed as single protein. In general terms: In TR-FRET formats the signal depends on donor and acceptor labels being close together.

Experiment [9] in a line: Induction of anti-CD3 antibodies-stimulated human T cell activation at 8 uM assessed fold increase in CD25 expression measured by ELISA assay. Further: reference of the scale not given here. The experiment is classed as functional, T cell line.
A short description of experiment [10]: Induction of anti-CD3 antibodies-stimulated human T cell activation at 8 uM assessed fold increase in IL-2 secretion measured by ELISA assay. Further: reference of the scale not given here. The experiment is classed as functional, T cell line.
The nature of experiment [11]: Induction of anti-CD3/CD28 antibodies-stimulated human T cell activation at 4 uM assessed fold increase in IL-2 secretion measured by ELISA assay. The experiment is classed as functional, T cell line.
Experiment [12] can be described thus: Induction of anti-CD3/CD28 antibodies-stimulated human T cell activation at 4 uM assessed fold increase in CD25 expression measured by ELISA assay. The experiment is classed as functional, T cell line.

T1 sequence (Q13191 whole entry, the tested form may be a part): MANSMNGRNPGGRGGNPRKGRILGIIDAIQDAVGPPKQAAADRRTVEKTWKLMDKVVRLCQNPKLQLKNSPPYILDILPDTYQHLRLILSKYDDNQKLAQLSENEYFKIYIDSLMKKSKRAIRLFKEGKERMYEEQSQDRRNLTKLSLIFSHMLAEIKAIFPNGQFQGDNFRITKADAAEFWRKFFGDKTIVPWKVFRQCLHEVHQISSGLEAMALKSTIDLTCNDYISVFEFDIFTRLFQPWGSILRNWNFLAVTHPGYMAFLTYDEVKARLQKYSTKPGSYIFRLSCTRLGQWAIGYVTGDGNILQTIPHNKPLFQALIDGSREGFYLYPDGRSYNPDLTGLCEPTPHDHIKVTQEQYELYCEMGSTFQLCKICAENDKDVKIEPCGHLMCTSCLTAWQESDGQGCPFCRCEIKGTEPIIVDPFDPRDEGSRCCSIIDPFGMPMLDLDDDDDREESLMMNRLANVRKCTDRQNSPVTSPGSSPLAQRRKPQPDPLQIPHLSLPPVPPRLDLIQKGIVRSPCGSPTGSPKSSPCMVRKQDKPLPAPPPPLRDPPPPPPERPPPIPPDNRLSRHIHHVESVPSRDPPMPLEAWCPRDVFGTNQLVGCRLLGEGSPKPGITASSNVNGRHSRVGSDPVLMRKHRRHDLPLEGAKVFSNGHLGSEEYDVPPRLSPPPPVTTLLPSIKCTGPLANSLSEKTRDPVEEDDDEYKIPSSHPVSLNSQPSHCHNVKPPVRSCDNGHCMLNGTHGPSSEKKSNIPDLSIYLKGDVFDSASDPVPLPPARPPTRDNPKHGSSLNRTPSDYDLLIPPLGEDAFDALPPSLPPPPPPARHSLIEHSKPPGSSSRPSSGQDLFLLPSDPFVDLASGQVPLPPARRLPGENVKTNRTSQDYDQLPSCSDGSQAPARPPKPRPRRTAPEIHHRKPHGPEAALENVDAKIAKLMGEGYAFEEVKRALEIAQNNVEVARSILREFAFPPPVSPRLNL

The molecule `C[C@H](Cc1ncnn1C)c1cccc(N2Cc3c(cccc3C(F)(F)F)C2=O)c1` registered a Kd in experiment [1] of more than 10 µM.

In experiment [1], `Cn1cnnc1CC1(c2cccc(N3Cc4c(cc(CN5CC[C@H](F)C5)cc4C4CC4)C3=O)c2)COC1` showed a Kd of less than 0.1 µM. The “fold change (FC)” value is on record as “>=7.5” in [2]; “>=7.5” in experiment [3]; 1.31 in [4]; “>=1.001” in experiment [5]; 0.151 in experiment [6]; 1.31 in experiment [7]. The IC50 in [8] is less than 0.1 µM.

Regarding `C[C@@H](Sc1nncn1C)c1cccc(NC(=O)c2cc(C(=O)N3CCC(O)C3)ccn2)c1` (single isomer, unassigned), the Kd in [1] is more than 10 µM.

`C[C@H](c1cc2c(c(C(F)(F)F)c1)CN(c1cccc(C3([C@@H](F)c4nncn4C)COC3)c1)C2=O)N1CCC2(CC2)C1` showed a dissociation constant (Kd) in [1] of less than 0.1 µM. In addition, the “fold change (FC)” value is on record as “>=7.5” in experiment [2]; “>=7.5” in [3]; “>=1.76” in experiment [4]; “>=1.001” in experiment [5]; “>=0.201” in [6]; “>=1.76” in experiment [7]. In addition, the IC50 in experiment [8] is less than 0.1 µM.

In [1], `C[C@@H](Sc1nncn1C)c1ccnc(N2Cc3c(cccc3C(F)(F)F)C2=O)c1` gave a Kd of more than 10 µM.

`C[C@@H](Sc1nncn1C)c1ccc(F)c(NC(=O)c2cccc(C(F)(F)F)n2)c1`: the Kd in experiment [1] is more than 10 µM.

For `C[C@H](Sc1nncn1C)c1cccc(NC(=O)c2cc(C(=O)N3CCCC3)ccn2)c1`, the Kd in experiment [1] was more than 10 µM.

In turn, `C[C@H](Sc1nncn1C)c1cccc(NC(=O)c2cc(C(=O)N3C[C@@H](O)C[C@@H]3C)ccn2)c1` returned a Kd in experiment [1] of more than 10 µM.

Turning to `CCn1cnnc1C[C@H](C)c1cccc(NC(=O)c2cc(S(C)(=O)=O)cc(C3CC3)n2)c1`, the Kd in experiment [1] is not below 3 µM. The IC50 in experiment [8] is not below 3 µM.

In [1], `CC1=CC(C(=O)Nc2cccc([C@H](C)Sc3nncn3C)c2)=NC(=O)C1` displayed a Kd of more than 10 µM. The IC50 in [8] was not below 3 µM.

In the case of `C[C@H](Sc1nncn1C)c1cccc(NC(=O)c2cc3cc(OCC(=O)O)ccc3cn2)c1`, the dissociation constant Kd in experiment [1] is more than 10 µM.

The molecule `C[C@H](Sc1nncn1C)c1cccc(NC(=O)c2cc(C(=O)N3C[C@H](O)C[C@H]3C)ccn2)c1` had a Kd in experiment [1] of more than 10 µM.

Molecule `C[C@H](Sc1nncn1C)c1cccc(NC(=O)c2cc(C(=O)N3CCC[C@@H](O)C3)ccn2)c1` displayed a Kd in experiment [1] of more than 10 µM.

In turn, `C[C@H](Cc1nnco1)c1cccc(N2Cc3c(cccc3C(F)(F)F)C2=O)c1` had a Kd in [1] of more than 10 µM.

Molecule `CC(C)c1cccc(C(=O)Nc2cccc([C@H](C)Sc3nncn3C)c2)c1` displayed a dissociation constant (Kd) in [1] of more than 10 µM.

Molecule `C[C@H](Sc1nncn1C)c1cccc(NC(=O)c2cc(C(=O)N3CCC[C@H](O)C3)ccn2)c1` displayed an equilibrium dissociation constant (Kd) in [1] of more than 10 µM.

In turn, `C[C@H](Sc1nncn1C)c1ccnc(NC(=O)c2cc(C(F)(F)F)c(Cl)cn2)c1` had a Kd in experiment [1] of more than 10 µM.

`C[C@H](Cc1nncn1C)c1cccc(N2Cc3c(cc(CN4CC[C@H](O)C4)cc3C(F)(F)F)C2=O)c1` returned a Kd in [1] of less than 0.1 µM. The molecule further yielded an IC50 in experiment [8] of less than 0.1 µM.

In turn, `CC(Sc1nncn1C)c1ccc(F)c(NC(=O)c2ccc3ccccc3n2)c1` (stereo not drawn) yielded a Kd in experiment [1] of more than 10 µM.

On to `C=CCC(Sc1nncn1C)c1cccc(NC(=O)c2ccc3ccccc3n2)c1` (stereo not drawn), for which the Kd in [1] was more than 10 µM.

In experiment [1], `C[C@H](Sc1nncn1C)c1cccc(NC(=O)c2cc(NS(=O)(=O)CCO)ccn2)c1` yielded a Kd of more than 10 µM.

In the case of `Cc1cnc(C(=O)Nc2cccc([C@H](C)Sc3nncn3C)c2)cc1C(F)(F)F`, the Kd in experiment [1] was more than 10 µM.

In turn, `C[C@@H](Cc1nncn1C)c1ccnc(N2Cc3c(cccc3C(F)(F)F)C2=O)c1` came in with a dissociation constant Kd in [1] of more than 10 µM.

`C[C@H](Sc1nncn1C)c1cccc(NC(=O)c2cccc(C(F)(F)F)c2)c1` had a dissociation constant (Kd) in [1] of more than 10 µM.

In experiment [1], `C=CCC(Sc1nncn1C)c1cccc(NC(=O)c2cc3ccccc3cn2)c1` (stereo not drawn) showed a Kd of more than 10 µM.

Molecule `COc1c(C(=O)Nc2cccc([C@H](C)Sc3nncn3C)c2)cccc1C(F)(F)F` showed a Kd in experiment [1] of more than 10 µM.

Molecule `CC(c1cccc(N2Cc3c(cccc3C(F)(F)F)C2=O)c1)C(F)(F)c1nncn1C` (stereo not drawn) showed a Kd in experiment [1] of less than 0.1 µM.

`CC(O)C1CN(C(=O)c2ccnc(C(=O)Nc3cccc([C@H](C)Cc4nncn4C)c3)c2)C1` (stereo partly drawn) registered a Kd in experiment [1] of less than 0.1 µM.

As for `C[C@H](Cc1nncn1C)c1cc(OCC(F)F)nc(N2Cc3c(cccc3C(F)(F)F)C2=O)c1`, the “fold change (FC)” value in [9] was “>=1.001”; in experiment [10], “>=0.201”; in [2], 2.51; in [3] it was 2.51; in [4] it was 1.01; in experiment [5], 0.801. Further, the “fold change (FC)” value in experiment [11] was “>=7.5”; in experiment [6], 0.151; in experiment [7], 1.01; in experiment [12] it was 1.31. Further, in [8], the IC50 is less than 0.1 µM.

Consider `Cn1cnnc1CC1(c2cccc(N3Cc4c(cc(CO)cc4C(F)(F)F)C3=O)c2)COC1`, for which the “fold change (FC)” value is listed as 0.601 in experiment [9]; 0.051 in [10]; 2.51 in [2]; 5 in experiment [3]; 1.31 in experiment [4]; 0.601 in experiment [5]. Moreover, the “fold change (FC)” value was “>=7.5” in experiment [11], 0.101 in experiment [6], 1.01 in experiment [7] and 1.51 in [12]. In addition, in experiment [8], the IC50 was less than 0.1 µM.

Take `C[C@H](Cc1nncn1C)c1cccc(N2Cc3c(cc(C(C)(C)O)cc3C(F)(F)F)C2=O)c1`: the “fold change (FC)” value in [9] was 0.801; in experiment [10], 0.151; in experiment [2], “>=7.5”; in [3], 2.51; in experiment [4], 1.01; in [5], “>=1.001”. The “fold change (FC)” value in [11] is reported as 5; in experiment [6] it was 0.101; in [7], “>=1.76”; in experiment [12], 1.31. The molecule also registered an IC50 in experiment [8] of less than 0.1 µM.

For `Cc1cc(C(=O)Nc2cccc([C@H](C)Sc3nncn3C)c2)nc(C(F)(F)F)c1`, the “fold change (FC)” value in experiment [9] is recorded as “>=1.001”; in experiment [10], 0.101; in experiment [2], 1.01; in [3], 1.01; in experiment [4], 1.01; in experiment [5], 0.601. Besides, the “fold change (FC)” value is listed as 2.51 in [11], “<=0.05” in experiment [6], 1.01 in experiment [7] and 1.01 in experiment [12]. In experiment [8], this molecule registered an IC50 of less than 0.1 µM.

As for `C[C@H](Cc1nncn1C)c1cccc(N2Cc3c(cc(C(=O)N4CC[C@H](O)C4)cc3C3CC3)C2=O)c1`, the “fold change (FC)” value in [9] is recorded as “>=1.001”; in experiment [10], 0.101; in experiment [2], 1.01; in experiment [3], 2.51; in experiment [4] it was 1.01; in experiment [5], 0.801. Moreover, the “fold change (FC)” value came to 2.51 in [11], 0.051 in experiment [6], 1.01 in experiment [7] and 1.31 in experiment [12]. In experiment [8], this molecule came in with a concentration for half-maximal inhibition (IC50) of less than 0.1 µM.

In the case of `C[C@H](Cc1nncn1C)c1cccc(NC(=O)c2ccnc(C3CC3)n2)c1`, the “fold change (FC)” value is on record as “>=1.001” in experiment [9]; “>=0.201” in experiment [10]; 2.51 in experiment [2]; 5 in experiment [3]; 1.31 in experiment [4]; “>=1.001” in experiment [5]. Besides, the “fold change (FC)” value is reported as “>=7.5” in experiment [11], “>=0.201” in experiment [6], 1.01 in [7] and 1.51 in experiment [12]. In addition, the IC50 in [8] is less than 0.1 µM.

Take `Cc1cc(C(=O)Nc2cccc([C@H](C)Cc3nncn3C)c2)nc(C(F)(F)F)n1`: the “fold change (FC)” value in experiment [9] is listed as “>=1.001”; in experiment [10], “>=0.201”; in experiment [2], 2.51; in [3], “>=7.5”; in [4] it was 1.51; in experiment [5], 0.801. The “fold change (FC)” value in [11] is on record as “>=7.5”; in experiment [6], “>=0.201”; in experiment [7], 1.01; in experiment [12], “>=1.76”. The molecule further registered an IC50 in [8] of less than 0.1 µM.

In the case of `C[C@H](Cc1nncn1C)c1cccc(NC(=O)c2cccc(C(F)(F)F)n2)c1`, the “fold change (FC)” value in [9] is on record as “>=1.001”; in [10] it was “>=0.201”; in [2] it was 2.51; in experiment [3] it was 5; in experiment [4] it was “>=1.76”; in [5], “>=1.001”. Besides, the “fold change (FC)” value in experiment [11] is given as “>=7.5”; in experiment [6] it was “>=0.201”; in [7] it was “>=1.76”; in experiment [12] it was “>=1.76”. For the same molecule, in experiment [8], the 50% inhibitory concentration (IC50) is less than 0.1 µM.

By Kd is commonly meant the equilibrium constant for the complex coming apart. The IC50 is the concentration that inhibits the measured activity by half.

Values taken from ChEMBL document CHEMBL5050844 (2019).
